Assay results published in patent US20040142888A1, “Modulators of RabGGT and methods of use thereof” (priority 2002, published 2004).

These substances were tested on HCT116 cells (assay: 3H-thymidine incorporation (proliferation) assay in HCT116 cells after siRNA treatment against RabGGT subunits). Conditions: 72 hours after siRNA/Lipofectamine 2000 treatment, average of three replicates.
Type: cell-based, human
Set-up: concentration or dose not given beside the values
Description: HCT-116 human colon tumor cells obtained from the ATCC were grown in RPMI culture medium supplemented with 10% heat inactivated FBS, 1× penicillin/streptomycin, and 25 mM HEPES, in an incubator maintained at 37° C. with CO2 at 6% and humidity at 95%. HCT116 cells were plated in 96 well plates at 2000 cells/100 μl media per well and incubated for 24 hours before RNAi treatment. For treatment, a 2× solution of Lipofectamine 2000/siRNA complexes was generated for each individual siRNA as follows. The siRNA oligonucleotides (Xeragon; Huntsville Ala.) were diluted to a final concentration of 1 μM in Optimem serum-free media (Invitrogen; Carlsbad, Calif.) and incubated for 5 minutes at room temperature. The Lipofectamine 2000 reagent (Invitrogen; Carlsbad, Calif.) was diluted to 10 μg/ml in Optimem serum-free media and incubated for 5 minutes at room temperature. Equal volumes of the 1 μM siRNA oligonucleotides and the 10 μg/ml Lipofectamine 2000 were mixed together, giving a 5× stock of siRNA/Lipofectamine 2000 complexes. After incubation for 20 minutes at room temperature, 1.5 volumes of RPMI medium containing 10% heat inactivated FBS was added to the 5× stock, resulting in a 2× stock of siRNA/Lipofectamine 2000 complexes. For RNAi treatment, 100 μof the 2× stock of siRNA/Lipofectamine 2000 complexes was added to each well containing HCT116 cells, to give a final concentration of 1× siRNA/Lipofectamine 2000 complexes. Cells were incubated for 72 hours prior to the proliferation assay. Three replicates were performed for each siRNA treatment.
The effect of RNAi treatment directed against RabGGT subunits on cellular proliferation was assayed using a 3H-thymidine incorporation assay. The principle of this assay is as follows: During S-phase of the cell cycle, cells incorporate thymidine into the new strand of genomic DNA. Tritiated thymidine can be added to the culture medium and will be incorporated into genomic DNA in proportion to the number of rounds of DNA synthesis that occur. Incorporation can be quantified following lysis of the cells and removal of unincorporated nucleotides. RNAi-treated cells prepared as described above were assayed for 3H-thymidine uptake as follows. The cells were pulsed with 3H-thymidine by addition of 20 μl of a 44 μCi/ml solution of 3H-thymidine in RPMI to each well, to obtain a final concentration of 3H-thymidine of 4 μCi/ml. After incubation for 3 h at 37° C., the medium was removed and 50 μl of 0.25% trypsin in phosphate buffered saline (140 mM NaCl, 2.7 mM KCl, 10 mM Na2HPO4 and 1.8 mM KH2PO4, pH 7.4) was added. After 10 minutes, the contents of the wells were harvested onto a 96-well GF/C filter plate (Whatman; Clifton N.J.) using a Hewlett Packard Filtermate. The filter plate was washed 10 times with distilled water, then left to dry overnight. After the addition of 50 μl of Microscint-20 scintillation fluid (Perkin Elmer; Boston, Mass.) per well, the filter plates were sealed and the amount of radioactivity retained on the filter was determined by scintillation counting. The average of the three replicate samples is reported.

| Substance | 3H-thy incorp. % of control [%] |
| --- | --- |
| Beta-1: siRNA against human RabGGT-beta, coding bases 493-516, SEQ ID NO:07 / NO:08 (chain 1 CUUUGGCUUUGUUGGGGAATT; chain 2 UUCCCCAACAAAGCCAAAGTT; chemistry not given here) | 77 |
| Beta-3: siRNA against human RabGGT-beta, coding bases 812-835, SEQ ID NO:11 / NO:12 (chain 1 GAUGAAGAAACGGGGGGAUTT; chain 2 AUCCCCCCGUUUCUUCAUCTT; chemistry not given here) | 36 |
| Alpha-1: siRNA against human RabGGT-alpha, coding bases 268-291, SEQ ID NO:01 / NO:02 (chain 1 GGCAGAACUGGGCUUCCUGTT; chain 2 CAGGAAGCCCAGUUCUGCCTT; chemistry not given here) | 33 |
| Alpha-2: siRNA against human RabGGT-alpha, coding bases 628-651, SEQ ID NO:03 / NO:04 (chain 1 AGAGCUGGAGCUGGUGCAGTT; chain 2 CUGCACCAGCUCCAGCUCUTT; chemistry not given here) | 17 |
